# In the supplement of paper PMC10307832:
# Tests used:
# Experiment in all cases: relative viability (nuclei count vs DMSO), 5 days (fraction); higher = more cells survive
# [1] = compound: CC1=NC=CC(=C1)C2=CC=C(C=C2)CC(=O)NC3=CC=C(C=C3)C4=CN=CC=C4 [Wnt-C59]
# Procedure, shortened: (§1)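 Lung cancer cell lines in 1536-well plates were exposed by pinning to five library-drug doses (not always all listed) √10 apart, following an overnight hold at 37 °C. MetaXpress counted Hoechst-stained nuclei from 4× images taken after 5 days without medium change. Viability is the median ratio of treated-well to vehicle-well nuclei across plates. Plates required control CV below 25% and at least one doubling.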
# [2] = compound: CS(=O)(=O)CCNCc1ccc(-c2ccc3ncnc(Nc4ccc(OCc5cccc(F)c5)c(Cl)c4)c3c2)o1 [Lapatinib]
# Procedure, shortened: as §1
# [3] = compound: CS(=O)(=O)CCNCc1ccc(-c2ccc3ncnc(Nc4ccc(OCc5cccc(F)c5)c(Cl)c4)c3c2)o1 [Lapatinib] + O=C(CCCCCCC(=O)Nc1ccccc1)NO [Vorinostat] (partner 1 µM)
# Procedure, shortened: (§2)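 Lung cancer cell lines in 1536-well plates were dosed by pin tool the day after seeding, either with one drug alone or with a fixed anchor-drug dose plus five library-drug doses (not always all listed) in √10 steps. After 5 days, cells were fixed and their nuclei stained in one step (final 0.05% Triton X-100, 1% formaldehyde, 1 ug/ml Hoechst), then counted on 4× images. Relative viability is the nuclei count in treated wells divided by that in vehicle wells. Values are medians of duplicate plates.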
# [4] = compound: CC1=NC=CC(=C1)C2=CC=C(C=C2)CC(=O)NC3=CC=C(C=C3)C4=CN=CC=C4 [Wnt-C59] + Cc1nc(Nc2ncc(C(=O)Nc3c(C)cccc3Cl)s2)cc(N2CCN(CCO)CC2)n1 [Dasatinib] (partner 0.075 µM)
# Procedure, shortened: as §2
Cell Line,relative viability ([1]; 0.001 µM),relative viability ([1]; 0.01 µM),relative viability ([1]; 0.03162 µM),relative viability ([1]; 0.1 µM),relative viability ([2]; 0.02 µM),relative viability ([2]; 0.06325 µM),relative viability ([2]; 0.2 µM),relative viability ([2]; 0.6325 µM),relative viability ([2]; 2 µM),"relative viability ([2]; 2 µM, anchor plate)",relative viability ([3]; first compound 0.02 µM),relative viability ([3]; first compound 0.06325 µM),relative viability ([3]; first compound 0.2 µM),relative viability ([3]; first compound 0.6325 µM),relative viability ([3]; first compound 2 µM),relative viability ([4]; first compound 0.001 µM),relative viability ([4]; first compound 0.01 µM),relative viability ([4]; first compound 0.03162 µM),relative viability ([4]; first compound 0.1 µM)
NCI-H647,0.914,1,0.934,0.946,0.776,0.897,0.767,1.02,0.806,1.06,0.627,0.403,0.627,0.498,0.584,0.193,0.166,0.2,0.152
NCI-H3122,0.989,0.991,1.02,0.962,0.912,0.981,0.992,0.965,1,1.03,0.932,1.06,0.963,0.977,0.974,0.824,0.951,0.893,0.894
A549,0.966,0.978,1.01,0.893,0.982,0.875,0.867,0.957,0.861,0.993,–,–,–,–,–,–,–,–,–
NCI-H1299,1.03,1.03,1.03,1.01,0.985,1.02,1,0.99,1.01,0.95,–,–,–,–,–,–,–,–,–
HCC-44,1.04,0.972,0.979,1.04,0.602,0.997,0.983,1.03,0.893,1.02,1.07,1.11,1.16,1.16,0.916,–,–,–,–
NCI-H838,0.981,0.985,0.964,0.995,0.954,0.82,0.97,0.947,0.897,0.992,0.699,0.69,0.743,0.732,0.544,0.291,0.29,0.288,0.302
NCI-H2342,1.01,1,0.989,1.03,0.742,0.825,0.798,0.86,0.856,–,0.562,0.596,0.625,0.707,0.693,0.326,0.326,0.358,0.337
NCI-H460,0.973,0.95,1.02,0.957,0.952,0.984,0.969,0.969,0.868,0.988,0.671,0.67,0.815,0.715,0.533,0.482,0.483,0.524,0.531
CAL-12T,0.975,1.04,0.965,1.04,0.763,0.978,0.909,0.776,0.678,0.681,0.655,0.624,0.755,0.71,0.424,0.505,0.391,0.475,0.437
NCI-H1650,1.02,0.898,0.957,0.826,0.809,0.73,0.851,0.834,0.737,0.805,0.474,0.578,0.554,0.516,0.664,0.302,0.333,0.309,0.322
NCI-H650,0.886,0.952,1.03,0.974,–,0.912,0.919,1.04,0.831,0.926,–,0.38,0.434,0.577,0.538,0.43,0.512,0.457,0.526
NCI-H2085,1.02,0.98,1,0.953,0.83,0.854,0.958,0.937,0.859,0.773,0.666,0.716,0.795,0.741,0.587,0.282,0.236,0.269,0.249
NCI-H2126,1.02,0.976,1.03,1.04,–,0.765,0.946,0.994,0.927,0.759,0.251,0.405,0.717,0.801,0.614,0.658,0.592,0.647,0.61
NCI-H1666,0.993,0.92,0.951,0.967,0.936,0.871,0.89,0.862,0.708,0.702,0.951,0.978,1.05,0.961,0.789,0.803,0.84,0.836,0.795
NCI-H727,1.01,0.854,0.867,0.931,0.839,–,1.11,0.778,0.776,0.796,1.17,–,1.17,1.45,1.02,0.298,–,0.363,0.388
LC-2-ad,1.05,0.966,0.933,0.955,–,0.895,0.984,0.983,0.896,0.967,–,0.632,0.763,0.623,0.672,0.696,0.73,0.53,0.559
IA-LM,1.05,0.909,0.94,0.884,0.816,0.977,1.04,0.902,0.983,0.848,–,0.795,–,0.916,0.885,–,–,–,–
NCI-H1648,0.881,1.06,1.05,0.9,0.671,0.667,0.548,0.625,0.392,–,–,0.271,0.389,0.587,0.287,–,–,–,–
NCI-H1792,0.918,0.921,0.705,1.07,–,–,0.928,1,0.762,0.919,–,–,–,–,–,0.753,0.771,0.992,0.718
EBC-1,1.08,0.995,1.02,0.904,0.993,0.979,0.945,0.971,–,–,–,–,–,–,–,–,–,–,–
